A word on the melting point: it is the temperature, or range, at which the solid turns liquid.

As for `Brc1ccc(C2CCC(NC(Cc3ccccc3)c3ccccc3)=N2)cc1` (stereo not shown), the melting point was 130 to 134 °C.
